Data from the NIST ThermoML archive (doi:10.1016/j.fluid.2015.02.007).
± gives the expanded uncertainty stated by the source.

Key:
[1] = Molar enthalpy of transition or fusion; conditions: Crystal; DSC
[2] = Crystal; DTA

Structure (SMILES)	Molar enthalpy of transition or fusion [1] [kcal/mol]	Normal melting temperature [2] [°C]
O=C(O)c1ccccc1Nc1cccc(Cl)c1Cl [clofenamic acid]	7.26 ± 0.16	171.00 ± 0.88
O=C(O)c1cccnc1Nc1cccc(C(F)(F)F)c1	8.38 ± 0.182	204.00 ± 1.5
Cc1c(Cl)cccc1Nc1ccccc1C(=O)O [2-[(3-chloro-2-methylphenyl)amino]benzoic acid]	7.52 ± 0.165	214.00 ± 1.1
